PubChem BioAssay AID1671244
pIC50: −log10 of the molar value.

Target: Casein kinase I isoform delta (Homo sapiens) (UniProt P48730)
Assay: CSNK1D kinase inhibitors, dose response, biochemical, Z'-LYTE, FRET, direct format (AID 1671244)
Settings: Z'-LYTE FRET kinase activity, recombinant CK1 delta

Sequence of Casein kinase I isoform delta (Homo sapiens) (P48730 whole entry, looked up, canonical isoform): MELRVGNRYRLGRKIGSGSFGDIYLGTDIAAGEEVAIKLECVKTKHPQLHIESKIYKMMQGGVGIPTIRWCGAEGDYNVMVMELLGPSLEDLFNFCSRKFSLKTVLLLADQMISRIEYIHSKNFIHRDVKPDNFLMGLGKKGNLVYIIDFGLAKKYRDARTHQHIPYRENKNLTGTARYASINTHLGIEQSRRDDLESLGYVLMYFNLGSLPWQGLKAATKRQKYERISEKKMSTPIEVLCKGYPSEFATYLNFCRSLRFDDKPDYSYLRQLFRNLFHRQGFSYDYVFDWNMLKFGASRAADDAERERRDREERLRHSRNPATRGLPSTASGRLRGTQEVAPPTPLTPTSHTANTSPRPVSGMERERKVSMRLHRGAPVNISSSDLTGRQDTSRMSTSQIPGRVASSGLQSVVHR

pIC50: 5.43
Structure (SMILES): Brc1c(Br)c(Br)c2n[nH]nc2c1Br
